{"source": "patent US8535903B2", "about": "“Nitroreductase enzymatic substrates” (BioMerieux, S.A., priority 2009, dated 2013)", "assay_in_all_cases": "Detection of nitroreductase activity on Columbia medium with substrate", "assay_type_in_all_cases": "cell-based", "settings_in_all_cases": "24 hours at 37° C.", "key": {"[1]": {"system": "Bacillus subtilis NCTC 9 372", "design": "key to Growth: NG: no growth; 0.5: low growth; 1: moderate growth; 2: good growth; key to Col. (color of the colonies) / Fluo. (fluorescence of the colonies): —: no color/fluorescence", "description": "(§1) 40 mg of substrate were dissolved in 4 ml of dimethylsulfoxide and added to 400 ml of previously autoclaved Columbia medium. The medium was distributed in Petri dishes 90 mm in diameter at the rate of 20 ml per dish. Seventeen strains of microorganisms obtained from collections and belonging to various species of bacteria and yeasts are inoculated as spots of about 10 000 colony forming units. The media are incubated for 24 hours at 37° C. and then the colonies formed are examined visually and under a UV lamp at 365 nm."}, "[2]": {"system": "Candida albicans ATCC 90 028", "design": "key to Growth: NG: no growth; 0.5: low growth; 1: moderate growth; 2: good growth; key to Col. (color of the colonies) / Fluo. (fluorescence of the colonies): —: no color/fluorescence", "description": "as §1"}, "[3]": {"system": "Candida glabrata NCPF 3 943", "design": "key to Growth: NG: no growth; 0.5: low growth; 1: moderate growth; 2: good growth; key to Col. (color of the colonies) / Fluo. (fluorescence of the colonies): —: no color/fluorescence", "description": "as §1"}, "[4]": {"system": "Enterococcus faecalis NCTC 775", "design": "key to Growth: NG: no growth; 0.5: low growth; 1: moderate growth; 2: good growth; key to Col. (color of the colonies) / Fluo. (fluorescence of the colonies): —: no color/fluorescence", "description": "as §1"}, "[5]": {"system": "Enterococcus faecium NCTC 7 171", "design": "key to Growth: NG: no growth; 0.5: low growth; 1: moderate growth; 2: good growth; key to Col. (color of the colonies) / Fluo. (fluorescence of the colonies): —: no color/fluorescence", "description": "as §1"}, "[6]": {"system": "Listeria monocytogenes NCTC 11 994", "design": "key to Growth: NG: no growth; 0.5: low growth; 1: moderate growth; 2: good growth; key to Col. (color of the colonies) / Fluo. (fluorescence of the colonies): —: no color/fluorescence", "description": "as §1"}, "[7]": {"system": "Pseudomonas aeruginosa NCTC 10 662", "design": "key to Growth: NG: no growth; 0.5: low growth; 1: moderate growth; 2: good growth; key to Col. (color of the colonies) / Fluo. (fluorescence of the colonies): —: no color/fluorescence", "description": "as §1"}, "[8]": {"system": "Salmonella typhimurium NCTC 74", "design": "key to Growth: NG: no growth; 0.5: low growth; 1: moderate growth; 2: good growth; key to Col. (color of the colonies) / Fluo. (fluorescence of the colonies): —: no color/fluorescence", "description": "as §1"}, "[9]": {"system": "Staphylococcus aureus NCTC 11 939", "design": "key to Growth: NG: no growth; 0.5: low growth; 1: moderate growth; 2: good growth; key to Col. (color of the colonies) / Fluo. (fluorescence of the colonies): —: no color/fluorescence", "description": "as §1"}, "[10]": {"system": "Staphylococcus aureus NCTC 6 571", "design": "key to Growth: NG: no growth; 0.5: low growth; 1: moderate growth; 2: good growth; key to Col. (color of the colonies) / Fluo. (fluorescence of the colonies): —: no color/fluorescence", "description": "as §1"}, "[11]": {"system": "Staphylococcus epidermidis NCTC 11 047", "design": "key to Growth: NG: no growth; 0.5: low growth; 1: moderate growth; 2: good growth; key to Col. (color of the colonies) / Fluo. (fluorescence of the colonies): —: no color/fluorescence", "description": "as §1"}, "[12]": {"system": "Streptococcus pyogenes NCTC 8 306", "design": "key to Growth: NG: no growth; 0.5: low growth; 1: moderate growth; 2: good growth; key to Col. (color of the colonies) / Fluo. (fluorescence of the colonies): —: no color/fluorescence", "description": "as §1"}, "[13]": {"system": "Yersinia enterocolitica NCTC 11 176", "design": "key to Growth: NG: no growth; 0.5: low growth; 1: moderate growth; 2: good growth; key to Col. (color of the colonies) / Fluo. (fluorescence of the colonies): —: no color/fluorescence", "description": "as §1"}, "[14]": {"system": "Enterobacter cloacae NCTC 11 936", "design": "key to Growth: NG: no growth; 0.5: low growth; 1: moderate growth; 2: good growth; key to Col. (color of the colonies): —: no color/fluorescence", "description": "as §1"}, "[15]": {"system": "Escherichia coli NCTC 10 418", "design": "key to Growth: NG: no growth; 0.5: low growth; 1: moderate growth; 2: good growth; key to Col. (color of the colonies): —: no color/fluorescence", "description": "as §1"}, "[16]": {"system": "Providencia rettgeri NCTC 7 475", "design": "key to Growth: NG: no growth; 0.5: low growth; 1: moderate growth; 2: good growth; key to Col. (color of the colonies): —: no color/fluorescence", "description": "as §1"}, "[17]": {"system": "Serratia marcescens NCTC 10 211", "design": "key to Growth: NG: no growth; 0.5: low growth; 1: moderate growth; 2: good growth; key to Col. (color of the colonies): —: no color/fluorescence", "description": "as §1"}, "[18]": {"settings": "40 mg substrate in 400 ml Columbia medium"}}}
{"smiles": "O=[N+]([O-])c1ccc(C=Cc2ccncc2)cc1", "note": "[4NSP, 4,4′-Nitrostyrylpyridine]", "values": [{"measurement": "Growth", "setting": "[1]; [18]", "value": "NG"}, {"measurement": "Fluo. (fluorescence of the colonies)", "setting": "[1]; UV lamp at 365 nm", "value": "—"}, {"measurement": "Col. (color of the colonies)", "setting": "[1]; examined visually", "value": "—"}, {"measurement": "Growth", "setting": "[2]; [18]", "value": "NG"}, {"measurement": "Fluo. (fluorescence of the colonies)", "setting": "[2]; UV lamp at 365 nm", "value": "—"}, {"measurement": "Col. (color of the colonies)", "setting": "[2]; examined visually", "value": "—"}, {"measurement": "Growth", "setting": "[3]; [18]", "value": 1}, {"measurement": "Fluo. (fluorescence of the colonies)", "setting": "[3]; UV lamp at 365 nm", "value": "—"}, {"measurement": "Col. (color of the colonies)", "setting": "[3]; examined visually", "value": "—"}, {"measurement": "Growth", "setting": "[4]; [18]", "value": 1}, {"measurement": "Fluo. (fluorescence of the colonies)", "setting": "[4]; UV lamp at 365 nm", "value": "—"}, {"measurement": "Col. (color of the colonies)", "setting": "[4]; examined visually", "value": "—"}, {"measurement": "Growth", "setting": "[5]; [18]", "value": 1}, {"measurement": "Fluo. (fluorescence of the colonies)", "setting": "[5]; UV lamp at 365 nm", "value": "—"}, {"measurement": "Col. (color of the colonies)", "setting": "[5]; examined visually", "value": "—"}, {"measurement": "Growth", "setting": "[6]; [18]", "value": 1}, {"measurement": "Fluo. (fluorescence of the colonies)", "setting": "[6]; UV lamp at 365 nm", "value": "—"}, {"measurement": "Col. (color of the colonies)", "setting": "[6]; examined visually", "value": "—"}, {"measurement": "Growth", "setting": "[7]; [18]", "value": 2}, {"measurement": "Fluo. (fluorescence of the colonies)", "setting": "[7]; UV lamp at 365 nm", "value": "—"}, {"measurement": "Col. (color of the colonies)", "setting": "[7]; examined visually", "value": "—"}, {"measurement": "Growth", "setting": "[8]; [18]", "value": 0.5}, {"measurement": "Fluo. (fluorescence of the colonies)", "setting": "[8]; UV lamp at 365 nm", "value": "—"}, {"measurement": "Col. (color of the colonies)", "setting": "[8]; examined visually", "value": "—"}, {"measurement": "Growth", "setting": "[9]; [18]", "value": 1}, {"measurement": "Fluo. (fluorescence of the colonies)", "setting": "[9]; UV lamp at 365 nm", "value": "—"}, {"measurement": "Col. (color of the colonies)", "setting": "[9]; examined visually", "value": "—"}, {"measurement": "Growth", "setting": "[10]; [18]", "value": 1}, {"measurement": "Fluo. (fluorescence of the colonies)", "setting": "[10]; UV lamp at 365 nm", "value": "—"}, {"measurement": "Col. (color of the colonies)", "setting": "[10]; examined visually", "value": "—"}, {"measurement": "Growth", "setting": "[11]; [18]", "value": 0.5}, {"measurement": "Fluo. (fluorescence of the colonies)", "setting": "[11]; UV lamp at 365 nm", "value": "—"}, {"measurement": "Col. (color of the colonies)", "setting": "[11]; examined visually", "value": "—"}, {"measurement": "Growth", "setting": "[12]; [18]", "value": 1}, {"measurement": "Fluo. (fluorescence of the colonies)", "setting": "[12]; UV lamp at 365 nm", "value": "—"}, {"measurement": "Col. (color of the colonies)", "setting": "[12]; examined visually", "value": "—"}, {"measurement": "Growth", "setting": "[13]; [18]", "value": 2}, {"measurement": "Fluo. (fluorescence of the colonies)", "setting": "[13]; UV lamp at 365 nm", "value": "—"}, {"measurement": "Col. (color of the colonies)", "setting": "[13]; examined visually", "value": "—"}, {"measurement": "Growth", "setting": "[14]; [18]", "value": 2}, {"measurement": "Fluo. (fluorescence of the colonies)", "setting": "[14]; UV lamp at 365 nm", "value": "Yellow"}, {"measurement": "Col. (color of the colonies)", "setting": "[14]; examined visually", "value": "—"}, {"measurement": "Growth", "setting": "[15]; [18]", "value": 2}, {"measurement": "Fluo. (fluorescence of the colonies)", "setting": "[15]; UV lamp at 365 nm", "value": "Yellow"}, {"measurement": "Col. (color of the colonies)", "setting": "[15]; examined visually", "value": "—"}, {"measurement": "Growth", "setting": "[16]; [18]", "value": 2}, {"measurement": "Fluo. (fluorescence of the colonies)", "setting": "[16]; UV lamp at 365 nm", "value": "Pale yellow"}, {"measurement": "Col. (color of the colonies)", "setting": "[16]; examined visually", "value": "—"}, {"measurement": "Growth", "setting": "[17]; [18]", "value": 2}, {"measurement": "Fluo. (fluorescence of the colonies)", "setting": "[17]; UV lamp at 365 nm", "value": "Yellow"}, {"measurement": "Col. (color of the colonies)", "setting": "[17]; examined visually", "value": "—"}]}
